According to BindingDB's records for PubMed 11082457 (Centre De Recherches De Croissy, 2000):

Assays:
[1] = target: T1, Amine oxidase [flavin-containing] B (Rattus norvegicus, UniProt P19643)
T1 sequence (P19643 whole entry): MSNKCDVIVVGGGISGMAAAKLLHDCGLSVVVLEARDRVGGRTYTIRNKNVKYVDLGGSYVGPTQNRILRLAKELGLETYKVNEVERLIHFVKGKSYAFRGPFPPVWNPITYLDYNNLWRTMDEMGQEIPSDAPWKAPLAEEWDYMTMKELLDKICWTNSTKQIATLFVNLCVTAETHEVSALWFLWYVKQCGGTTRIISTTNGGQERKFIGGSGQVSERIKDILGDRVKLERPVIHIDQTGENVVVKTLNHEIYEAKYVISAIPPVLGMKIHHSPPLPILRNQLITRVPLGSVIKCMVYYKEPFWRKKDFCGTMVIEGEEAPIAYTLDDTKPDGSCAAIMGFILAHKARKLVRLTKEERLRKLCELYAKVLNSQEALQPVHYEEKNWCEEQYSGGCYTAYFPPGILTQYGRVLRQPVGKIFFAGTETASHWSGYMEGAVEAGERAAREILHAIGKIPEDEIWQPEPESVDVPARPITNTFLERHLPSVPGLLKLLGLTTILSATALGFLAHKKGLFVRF

[2] = target: T2, Amine oxidase [flavin-containing] A (Rattus norvegicus, UniProt P21396)
T2 sequence (P21396 whole entry): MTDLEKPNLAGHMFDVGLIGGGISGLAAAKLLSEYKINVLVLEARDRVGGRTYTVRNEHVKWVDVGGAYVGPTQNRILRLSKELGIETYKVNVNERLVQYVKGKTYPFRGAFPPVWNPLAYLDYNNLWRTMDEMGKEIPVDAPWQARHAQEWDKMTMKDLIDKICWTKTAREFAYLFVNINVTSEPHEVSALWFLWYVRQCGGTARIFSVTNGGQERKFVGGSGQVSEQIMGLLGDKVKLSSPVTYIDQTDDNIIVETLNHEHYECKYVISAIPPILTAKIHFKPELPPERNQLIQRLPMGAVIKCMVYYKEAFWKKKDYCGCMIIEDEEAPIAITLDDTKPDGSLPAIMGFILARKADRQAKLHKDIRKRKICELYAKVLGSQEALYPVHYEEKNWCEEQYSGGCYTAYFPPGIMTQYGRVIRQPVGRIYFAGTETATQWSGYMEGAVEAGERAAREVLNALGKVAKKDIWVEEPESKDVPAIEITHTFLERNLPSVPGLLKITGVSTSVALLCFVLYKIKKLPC

[3] = target: T3, Alpha-1B adrenergic receptor (Homo sapiens, UniProt P35368)
T3 sequence (P35368 whole entry): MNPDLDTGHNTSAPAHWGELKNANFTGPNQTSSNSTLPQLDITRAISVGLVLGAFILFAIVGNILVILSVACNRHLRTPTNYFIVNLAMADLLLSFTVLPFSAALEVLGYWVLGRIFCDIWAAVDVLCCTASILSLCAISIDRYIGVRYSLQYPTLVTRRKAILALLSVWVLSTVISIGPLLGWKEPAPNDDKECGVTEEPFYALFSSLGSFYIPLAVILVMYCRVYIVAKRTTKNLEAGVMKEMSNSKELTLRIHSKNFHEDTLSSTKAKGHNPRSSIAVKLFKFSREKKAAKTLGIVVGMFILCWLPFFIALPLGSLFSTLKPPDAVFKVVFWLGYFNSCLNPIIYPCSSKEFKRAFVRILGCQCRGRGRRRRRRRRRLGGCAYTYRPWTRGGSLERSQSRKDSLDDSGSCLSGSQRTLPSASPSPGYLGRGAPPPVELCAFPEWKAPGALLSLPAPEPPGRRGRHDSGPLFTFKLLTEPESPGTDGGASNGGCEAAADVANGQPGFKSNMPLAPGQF

[4] = target: Sodium-dependent noradrenaline transporter (Homo sapiens, UniProt P23975)
Chain of Sodium-dependent noradrenaline transporter (P23975 whole entry): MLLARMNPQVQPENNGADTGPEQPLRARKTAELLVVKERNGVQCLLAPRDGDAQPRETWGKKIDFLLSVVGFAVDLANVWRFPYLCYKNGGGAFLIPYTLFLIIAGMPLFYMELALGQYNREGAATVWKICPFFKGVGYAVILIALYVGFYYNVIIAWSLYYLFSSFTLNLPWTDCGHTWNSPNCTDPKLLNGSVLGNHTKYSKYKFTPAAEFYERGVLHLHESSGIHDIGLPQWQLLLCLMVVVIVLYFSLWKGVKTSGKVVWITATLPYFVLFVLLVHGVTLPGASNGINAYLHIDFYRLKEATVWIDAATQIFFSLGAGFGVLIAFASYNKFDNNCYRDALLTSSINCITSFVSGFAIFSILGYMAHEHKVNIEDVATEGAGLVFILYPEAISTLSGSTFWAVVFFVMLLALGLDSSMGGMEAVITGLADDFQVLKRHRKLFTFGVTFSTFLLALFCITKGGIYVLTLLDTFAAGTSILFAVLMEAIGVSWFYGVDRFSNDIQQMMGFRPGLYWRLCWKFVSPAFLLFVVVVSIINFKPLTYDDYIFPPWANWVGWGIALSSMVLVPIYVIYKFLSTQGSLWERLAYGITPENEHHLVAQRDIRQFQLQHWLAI

[5] = target: T4, Alpha-1D adrenergic receptor (Homo sapiens, UniProt P25100)
T4 sequence (P25100 whole entry): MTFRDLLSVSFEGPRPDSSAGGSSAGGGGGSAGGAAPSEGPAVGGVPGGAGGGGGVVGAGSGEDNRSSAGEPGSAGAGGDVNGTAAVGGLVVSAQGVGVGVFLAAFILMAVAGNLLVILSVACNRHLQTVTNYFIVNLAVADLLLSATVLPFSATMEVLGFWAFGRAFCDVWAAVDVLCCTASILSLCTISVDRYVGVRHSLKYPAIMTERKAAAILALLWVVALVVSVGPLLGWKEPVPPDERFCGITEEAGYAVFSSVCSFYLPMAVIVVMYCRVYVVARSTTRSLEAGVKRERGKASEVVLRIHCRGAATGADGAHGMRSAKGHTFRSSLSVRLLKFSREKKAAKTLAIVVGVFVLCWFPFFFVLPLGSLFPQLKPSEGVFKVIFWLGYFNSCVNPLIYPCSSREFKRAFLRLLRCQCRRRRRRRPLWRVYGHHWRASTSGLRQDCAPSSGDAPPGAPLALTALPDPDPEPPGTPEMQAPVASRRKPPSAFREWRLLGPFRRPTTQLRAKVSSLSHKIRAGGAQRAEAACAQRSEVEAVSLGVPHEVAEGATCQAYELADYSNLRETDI

[6] = target: Nischarin (Rattus norvegicus, UniProt Q4G017)
Chain of Nischarin (Q4G017 whole entry): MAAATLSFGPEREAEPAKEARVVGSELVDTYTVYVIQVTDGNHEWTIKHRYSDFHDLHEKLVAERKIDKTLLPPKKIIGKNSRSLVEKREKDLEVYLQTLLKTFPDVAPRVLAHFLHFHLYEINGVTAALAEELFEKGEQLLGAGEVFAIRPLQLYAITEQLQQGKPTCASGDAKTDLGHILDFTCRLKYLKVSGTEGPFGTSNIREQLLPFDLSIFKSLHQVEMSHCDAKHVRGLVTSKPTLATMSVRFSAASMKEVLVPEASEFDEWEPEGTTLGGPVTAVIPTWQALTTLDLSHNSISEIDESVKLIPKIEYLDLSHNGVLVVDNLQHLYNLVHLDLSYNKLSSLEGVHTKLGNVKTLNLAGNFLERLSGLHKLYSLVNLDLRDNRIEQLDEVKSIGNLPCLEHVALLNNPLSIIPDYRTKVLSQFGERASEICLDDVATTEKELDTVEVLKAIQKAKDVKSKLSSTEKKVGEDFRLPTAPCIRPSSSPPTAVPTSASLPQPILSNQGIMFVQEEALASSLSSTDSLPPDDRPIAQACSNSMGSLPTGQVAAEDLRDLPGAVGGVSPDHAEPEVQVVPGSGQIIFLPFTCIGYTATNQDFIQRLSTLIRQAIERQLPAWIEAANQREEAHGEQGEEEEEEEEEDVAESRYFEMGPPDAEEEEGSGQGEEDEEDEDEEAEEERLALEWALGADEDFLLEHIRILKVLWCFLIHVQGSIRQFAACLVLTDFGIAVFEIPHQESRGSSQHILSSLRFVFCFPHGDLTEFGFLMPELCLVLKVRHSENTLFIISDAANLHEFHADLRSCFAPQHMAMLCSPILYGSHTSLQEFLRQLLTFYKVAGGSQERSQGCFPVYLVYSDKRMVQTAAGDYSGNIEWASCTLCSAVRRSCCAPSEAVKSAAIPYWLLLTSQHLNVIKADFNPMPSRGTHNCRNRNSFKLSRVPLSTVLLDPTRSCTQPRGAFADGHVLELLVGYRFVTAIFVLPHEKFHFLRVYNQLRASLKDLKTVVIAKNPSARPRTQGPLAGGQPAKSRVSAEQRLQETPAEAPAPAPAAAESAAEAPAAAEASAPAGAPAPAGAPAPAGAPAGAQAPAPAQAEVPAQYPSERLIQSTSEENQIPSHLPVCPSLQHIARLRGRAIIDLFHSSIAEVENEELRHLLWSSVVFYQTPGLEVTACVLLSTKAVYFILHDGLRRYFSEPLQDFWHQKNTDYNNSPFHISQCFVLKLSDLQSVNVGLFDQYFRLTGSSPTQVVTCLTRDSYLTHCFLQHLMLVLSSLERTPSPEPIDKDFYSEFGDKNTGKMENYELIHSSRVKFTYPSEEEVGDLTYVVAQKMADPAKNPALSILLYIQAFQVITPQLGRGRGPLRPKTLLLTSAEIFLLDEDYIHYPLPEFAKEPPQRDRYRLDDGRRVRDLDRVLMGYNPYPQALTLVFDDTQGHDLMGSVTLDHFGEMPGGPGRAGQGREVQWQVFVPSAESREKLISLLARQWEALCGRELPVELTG

Clc1cccc(Cl)c1N=C1NCCN1 [2-(2,6-dichloroanilino)-2-imidazoline]
Ki [1]: 1000 nM | Ki [2]: 1000 nM | Ki [3]: 316 nM | Ki [4]: 1000 nM | Ki [5]: 126 nM | Ki [6]: 1000 nM
